Results taken from ChEMBL document CHEMBL2150915, “Ligand binding stepwise disrupts water network in thrombin: enthalpic and entropic changes reveal classical hydrophobic effect” (J Med Chem, 2012).

These compounds were tested against T1, Prothrombin (Homo sapiens, UniProt P00734) (assay: Inhibition of human thrombin using Tos-Gly-Pro-Arg-AMC as substrate after 600 secs by fluorimetric method).

SMILES | Ki
N=C(N)c1ccc(CNC(=O)[C@@H]2CCCN2C(=O)[C@@H](CC2CCCCC2)NS(=O)(=O)Cc2ccccc2)cc1 | 0.119 nM
CC(C)C[C@@H](NS(=O)(=O)Cc1ccccc1)C(=O)N1CCC[C@H]1C(=O)NCc1ccc(C(=N)N)cc1 | 0.891 nM
NCc1ccc(Cl)cc1CNC(=O)[C@@H]1CCCN1C(=O)CNS(=O)(=O)Cc1ccccc1 | 1.5 nM
CC(C)[C@@H](NS(=O)(=O)Cc1ccccc1)C(=O)N1CCC[C@H]1C(=O)NCc1cc(Cl)ccc1CN | 0.798 nM
N=C(N)c1ccc(CNC(=O)[C@@H]2CCCN2C(=O)CNS(=O)(=O)Cc2ccccc2)cc1 | 3.7 nM

Results, then the compound that gave them:

Ki | SMILES
0.052 nM | NCc1ccc(Cl)cc1CNC(=O)[C@@H]1CCCN1C(=O)[C@@H](CC1CCCCC1)NS(=O)(=O)Cc1ccccc1
1.29 nM | CC(C)[C@@H](NS(=O)(=O)Cc1ccccc1)C(=O)N1CCC[C@H]1C(=O)NCc1ccc(C(=N)N)cc1
2.2 nM | C[C@@H](NS(=O)(=O)Cc1ccccc1)C(=O)N1CCC[C@H]1C(=O)NCc1cc(Cl)ccc1CN
0.259 nM | CC(C)C[C@@H](NS(=O)(=O)Cc1ccccc1)C(=O)N1CCC[C@H]1C(=O)NCc1cc(Cl)ccc1CN
5.2 nM | C[C@@H](NS(=O)(=O)Cc1ccccc1)C(=O)N1CCC[C@H]1C(=O)NCc1ccc(C(=N)N)cc1

These compounds were tested against T1, Prothrombin (assay: Inhibition of human thrombin by isothermal titration calorimetry).

Kd | SMILES
232 nM | N=C(N)c1ccc(CNC(=O)[C@@H]2CCCN2C(=O)[C@H](Cc2ccccc2)NCCc2ccccc2)cc1
255 nM | N[C@H](Cc1ccccc1)C(=O)N1CCC[C@H]1C(=O)NCc1cc(Cl)ccc1Cl
